# Counter-ions that a name gives are not always drawn.
# Assays:
# [1] = Solubility / dissolution in water; type: physicochemical
# From the text: Paroxetine hydrochloride has been described in the literature as a crystalline hemihydrate (see EP-A-0223403 of Beecham Group) and as various crystalline anhydrate forms (see WO96/24595 of SmithKline Beecham plc). These known forms are not ideally suited for all pharmaceutical applications. […] Furthermore, liquids can be dispensed into unit dosages more conveniently and precisely than solids, and the use of liquid feedstocks reduces hazards associated with dust. In addition, the known solid forms of paroxetine hydrochloride are relatively insoluble and are slow to dissolve completely.
# The product is homogenous without any further processing and is obtained in 100% yield, a higher yield than is possible in any crystallisation process.
# [2] = Stability of aqueous solutions; type: physicochemical
# From the text: The feedstock for freeze-drying may be prepared conveniently by, for example, dissolution of paroxetine free base in aqueous hydrochloric acid, although other solid forms of paroxetine hydrochloride may also be dissolved. For example, the feedstock may be prepared by dissolving amorphous paroxetine hydrochloride or a crystalline paroxetine hydrochloride anhydrate, hydrate or solvate in suitable solvent. The solvent used may be pure water or a mixture of water with compatible organic solvents. […] Suitable concentrations of paroxetine hydrochloride for freeze-drying are in the range 1 to 30% by weight, preferably in the range 5% to 20% by weight.
# Processing at elevated temperature may be employed to reduce the risk of unwanted crystallisation during processing but is not essential.
# [3] = known forms, well documented in the literature; cited from earlier work
smiles,measurement,setting,value
"Fc1ccc([C@@H]2CCNC[C@H]2COc2ccc3c(c2)OCO3)cc1 [freeze-dried paroxetine hydrochloride, paroxetine hydrochloride]",dissolution of the freeze-dried product,[1],dissolves quickly and completely
same,stability of reconstituted aqueous solution,"[2]; freeze-dried product dispersed in water, concentration for parenteral dosage, supersaturated with respect to hemihydrate",sufficiently stable for liquid dispensing
"Fc1ccc([C@@H]2CCNC[C@H]2COc2ccc3c(c2)OCO3)cc1 [paroxetine hydrochloride hemihydrate, Paroxetine hydrochloride hemihydrate]",stability of aqueous solution of a concentration suitable for freeze-drying,[2]; highly supersaturated with respect to paroxetine hydrochloride hemihydrate,sufficiently stable for sterile filtration and liquid processing
"Fc1ccc([C@@H]2CCNC[C@H]2COc2ccc3c(c2)OCO3)cc1 [paroxetine hydrochloride, (−)trans isomer of 4-(4′-fluorophenyl)-3-(3′,4′-methylenedioxyphenoxymethyl)-piperidine]",solubility in water,[3],low solubility in water
same,stability of aqueous solution,"[2]; ambient temperature, once dissolved, in the absence of seeds of a crystalline form",stable at ambient temperature for many days

# — patent US20020028942A1, “Novel process and compound” (priority 1997, published 2002)
